Key:
GABABR1a = target: T1, GABABR1a (Homo sapiens, UniProt Q9UBS5); experiment: Cell surface binding assay: Fc-tagged APP proteins applied to GABABR-transfected HEK293 cells, bound Fc detected by immunofluorescence; type: cell-based; details: Fc-tagged proteins 500 nM, 1 hr at RT; GFP-transfected cells as negative control
T1 construct: expressed in transfected cells; host or cells: HEK293T
Description: To confirm the APPα-GABABR interaction and identify the interacting domains, we used a cell-based binding assay. Purified Fc-sAPPα (or its domains) were exogenously applied to GABABR-transfected HEK293 cells. Bound Fc-sAPPα was determined by immunofluorescence.
(§1) We first determined which GABAB subunit and isoform sAPPα bound. The GABABR is comprised of two subunits, the GABABR1 and the GABABR2 subunit. GABABR1 is present as two main isoforms (1a and 1b), with the only difference between these isoforms being the presence of two protein-binding sushi repeats in the ectodomain of GABABR1a (FIG. 1A-B). […] The sequence of the Sushi domain 1 is […].
HEK293T cells were transfected with GFP (as negative control) or pdisplay-GABABR-1a, -1b, or -2 plasmids using Fugene6 (Promega). Twenty-four hours after transfection, the cells were incubated with Fc (as negative control) or the various Fc-tagged APP proteins (500 nM, in Dulbecco's modified Eagle's medium [DMEM] supplemented with 20 mM HEPES [pH 7.4]) for 1 hr at RT. After three brief washes with DMEM/20 mM HEPES (pH 7.4), cells were fixed in 4% paraformaldehyde, 4% sucrose in PBS. […] Image thresholding was set with ImageJ software using constant settings per experiment and the area of Fc binding was measured relative to cell area.

CA1 pyramidal neurons = experiment: Long-term potentiation in hippocampal slices; type: cell-based; details: non-primed high frequency stimulation protocol for agonists
Description: Long-term potentiation (LTP) is induced by stimulation of Schaffer collateral fibers and the response of CA1 pyramidal neurons is measured by extracellular recordings. For measuring antagonists, a primed burst stimulation protocol is used to activate GABABR receptors. Under this protocol, an antagonist blocks induction of LTP. For measuring agonists, a non-primed high frequency stimulation protocol is used.

[1] = tested on: primary hippocampal neurons; experiment: mEPSCs & mIPSCs in cultured primary hippocampal neurons (wild type); type: cell-based, mouse; details: acute application, 250 nM each
Description: mEPSCs & mIPSCs are measured in cultured primary hippocampal neurons at baseline and following acute application of agonists. Excitatory terminals selectively express the sushi domain-containing GABABR1a isoform (ref18), where it functions to inhibit neurotransmitter release (ref 24). Acute exposure of primary hippocampal neurons from wild type mice to 30μM baclofen, a GABABR agonist, or 250 nM sAPPα (Fc cleaved) reduces the frequency of miniature excitatory postsynaptic currents (mEPSCs) by 68% (FIG. 8 a,b) and 39% (FIG. 8 c,d), respectively, with no effect on mEPSC amplitude (FIG. 8e). […] Acute application of 30 μM baclofen or 250 nM purified sAPPα reduces the frequency of miniature inhibitory postsynaptic currents (mIPSCs) by 63% (FIG. 8a, 9a) and 44% (FIG. 8c, 9b), respectively, which is blocked by pretreatment with the GABABR antagonist CGP55845 (CGP, 5 μM) (FIG. 8f, 9d). Application of sAPPα causes a minor (14%) reduction on mIPSC amplitude (FIG. 8e, 9c). […] Baclofen is known to reduce the frequencies of mEPSCs and mIPSCs, which we have also confirmed. […] To confirm that the agonist is acting through GABABR1a, the agonist is tested in cultures with shRNA mediated knockdown of GABABR1a or antisense oligonucleotides mediated exon skipping of the exon encoding the Sushi domain 1 of GABABR1a. Antagonists are tested by treatment in combination with the agonist, Baclofen. […] As an antagonist we test an antibody against the sushi domain sequence (SEQ ID No: 5): […] SWTDMDTPSRCV. An antibody specifically binding to this domain which acts as an antagonist increases the frequencies of mEPSCs and mIPSCs. sAPPα also reduces mEPSC and mIPSC frequency in App/Aplp1 dKO cultures (FIG. 8j, 9f), excluding the possibility that sAPPα interferes with a complex of full-length APP and GABABR1 to exert its effect on GABABR signaling.
Hippocampal neurons were cultured from E18 C57/B16 wild type mice or APP/APLP1 dKO mice (provided by Ulrike Muller46) and plated on poly-D-lysine (Millipore), and laminin (Invitrogen) coated coverslips (Nalge Nunc International). Neurons were maintained in Neurobasal medium (Invitrogen) supplemented with B27, glucose, glutamax, penicillin/streptomycin (Invitrogen) and 25 μM β-mercaptoethanol.
Single neurons from wild type or APP/APLP1 null mutant embryos (E18) were recorded within the large neuronal network at DIV 12-15. The intracellular whole-cell pipette medium contained (in mM): 136 KCl, 18 HEPES, 4 Na-ATP, 4.6 MgCl2, 15 Creatine Phosphate, 1 EGTA and 50 U/ml Phospocreatine Kinase (300 mOsm, pH 7.30). Regular external solution contained 2 mM/2 mM Ca2+/Mg2+(in mM: 140 NaCl, 2.4 KCl, 2 CaCl2), 2 MgCl2, 10 HEPES, 14 Glucose (300 mOsm, pH 7.30)) and TTX (1 μM). Pharmacological reagents (30 μM baclofen, 5 μM CGP), sAPLP1, full length sAPP and sAPP derived peptides (250 nM each) were bath applied (dissolved in external medium described above) using a separate gravity driven application inlet. Recordings were done in whole cell voltage clamp configuration at −70 mV with a double EPC-10 amplifier (HEKA Elektronik) under control of Patchmaster v2×32 software (HEKA Elektronik). Currents were low-pass filtered at 3 kHz and stored at 20 kHz. Patch pipettes were pulled from borosilicate glass using a multi-step puller (P-1000; Sutter Instruments). Pipette resistance ranged from 3 to 5 MΩ and was compensated to 75-80%. Only cells with series resistances <15 MΩ were included in analysis. All recordings were done at room temperature. Spontaneous events were detected using Mini Analysis program (Synaptosoft). mEPSCs and mIPSCs were separated on the basis of their distinct decay kinetics, using a threshold of 5 ms47. Baseline was determined from an average of 60 sec of recordings prior to protein or drug treatment. Effect of treatment was determined from an average of 30 sec recordings after 140 sec of protein or drug treatment.

[2] = target: T2, sushi1 domain of GABABR1a (Homo sapiens, UniProt Q9UBS5); experiment: Isothermal titration calorimetry (ITC) with purified sushi1; type: binding
T2 construct: made in house
Description: as §1
All ITC experiments were carried out on a MicroCal iTC200 system. For ITC experiments involving APP constructs expressed in HEK293 cells, the purified GABABR1a-Sushi1 domain, sAPPα, CuBDAcD, AcD and CuBD constructs were buffer-exchanged by size exclusion chromatography in 20 mM Na-HEPES pH 7.0, 150 mM NaCl supplemented with 5 mM CaCl2. Concentrated samples were diluted and degassed before the experiment at the concentrations reported in the FIG. legends. sAPP fragments (all of them at 30 μM) were placed in the MicroCal sample cell and matching buffer was placed in the reference cell. Sushi1 (300 μM) was in the syringe and was injected into the cell in a series of 1 μL injections at 25° C. All the datasets were subtracted with a reference data consisting of serial injections of Sushi1 in the cell, containing buffer only under the same conditions. For ITC experiments involving synthetic APP peptides, the Sushi-1 protein was dialysed overnight to PBS buffer. […]

T1 sequence (Q9UBS5 20-591 limits assumed): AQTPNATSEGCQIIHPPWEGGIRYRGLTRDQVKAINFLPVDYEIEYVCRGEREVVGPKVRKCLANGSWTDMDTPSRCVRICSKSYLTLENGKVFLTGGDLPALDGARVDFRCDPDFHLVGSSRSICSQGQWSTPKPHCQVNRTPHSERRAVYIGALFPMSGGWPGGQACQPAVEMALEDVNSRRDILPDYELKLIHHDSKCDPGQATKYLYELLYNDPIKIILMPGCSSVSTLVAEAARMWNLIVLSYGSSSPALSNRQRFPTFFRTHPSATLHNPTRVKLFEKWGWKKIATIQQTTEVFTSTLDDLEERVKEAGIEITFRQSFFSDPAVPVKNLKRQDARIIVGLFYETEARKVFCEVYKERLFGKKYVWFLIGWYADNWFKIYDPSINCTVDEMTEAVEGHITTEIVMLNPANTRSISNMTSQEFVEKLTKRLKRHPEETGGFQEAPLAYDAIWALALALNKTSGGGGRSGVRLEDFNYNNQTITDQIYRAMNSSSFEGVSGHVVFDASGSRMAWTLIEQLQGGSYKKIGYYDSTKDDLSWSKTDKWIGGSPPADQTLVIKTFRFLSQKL
T2 sequence (Q9UBS5 26-97): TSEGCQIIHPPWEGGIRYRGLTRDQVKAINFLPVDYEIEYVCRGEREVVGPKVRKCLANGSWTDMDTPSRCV

ED: Fc-fusion of the 33 aa extension domain, mouse APP695 195-227aa
binding to GABABR1a-expressing HEK293 cells (immunofluorescence) (GABABR1a): sufficient for binding to GABABR1a

NVDSADAEEDDSDVWWGGADTDYADGSEDKVVE (listed as Homo sapiens) [Extension domain of human sAPPα (33 amino acids)]
effect on LTP (CA1 pyramidal neurons): facilitates LTP | effect on mEPSC frequency (in words) [1]: reduces the frequencies of mEPSCs and mIPSCs | effect on mIPSC frequency (in words) [1]: reduces the frequencies of mEPSCs and mIPSCs

GGADTDYADG (listed as Homo sapiens) [residues 211-220, synthetic peptide within the ExD, 211-220AA of APP695]
binding to sushi1 by ITC (in words) [2]: fails to bind

Reference: patent US10829528B2, “Therapeutic agents for neurological and psychiatric disorders” (VIB VZW, priority 2016, dated 2020)
